Source: patent US10513495B2, “Polymorph of pimavanserin tartrate and preparation method thereof and use of same” (SHANGHAI BEGREAT PHARMATECH, priority 2016, dated 2019)
Structures can show the parent of a compound that is named as a salt.

Experiment: Powder fluidity test (angle of repose)
Assay type: physicochemical
Conditions: for powder flowability (in words): Form III compared to existing Pimavanserin tartrate Form A, B and C; for angle of repose: powder through two funnels onto 7 cm diameter petri dish, α=arc tg(H/R), average of three measurements, ≤30 degrees good, >40 degrees very poor flowability, tartrate
Experimental: Powder fluidity test: the tray is a 7 cm diameter petri dish. The two glass funnels are overlapped on the iron frame. The distance between the lower funnel outlet and the Petri dish is 3.5-6.0 cm. Pimavanserin tartrate salt was added slowly from the upper funnel, and the sample was gradually accumulated on the petri dish through the buffer of the two funnels to form a cone until the highest cone was obtained. Determine the height H of the cone, measure each sample three times, take the average value, and calculate the angle of repose according to the following formula: α=arc tg(H/R) where α is the angle of repose and R is the radius of the dish
When the angle of repose of the powder is less than or equal to 30 degrees, it means the flowability of this powder is good. While in case, 40 degrees or less of the powder angle of repose, this powder can satisfy the demand for fluidity in the production process. When the angle of repose of the powder is more than 40 degrees, it means the very poor flowability of the drug powder which may cause the troubles above mentioned during the drug manufacturing process.

| powder flowability (in words) | angle of repose | SMILES |
| --- | --- | --- |
| poor | 45° | CC(C)COc1ccc(CNC(=O)N(Cc2ccc(F)cc2)C2CCN(C)CC2)cc1 [Form A, N-(4-fluorobenzyl)-N-(1-methylpiperidin-4-yl)-N′-[4-(2-methylpropoxy)phenylmethyl]urea tartrate] |
| poor | 43° | CC(C)COc1ccc(CNC(=O)N(Cc2ccc(F)cc2)C2CCN(C)CC2)cc1 [Form B, N-(4-fluorobenzyl)-N-(1-methylpiperidin-4-yl)-N′-[4-(2-methylpropoxy)phenylmethyl]urea tartrate] |
| poor | 41° | CC(C)COc1ccc(CNC(=O)N(Cc2ccc(F)cc2)C2CCN(C)CC2)cc1 [Form C, N-(4-fluorobenzyl)-N-(1-methylpiperidin-4-yl)-N′-[4-(2-methylpropoxy)phenylmethyl]urea tartrate] |

| SMILES | powder flowability (in words) | angle of repose |
| --- | --- | --- |
| CC(C)COc1ccc(CNC(=O)N(Cc2ccc(F)cc2)C2CCN(C)CC2)cc1 [Form III, N-(4-fluorobenzyl)-N-(1-methylpiperidin-4-yl)-N′-[4-(2-methylpropoxy)phenylmethyl]urea tartrate] | significantly improves the powder flowability | 32° |
